Experimental data as given in patent publication US20250108026A1, “DROXIDOPA COMPOSITIONS AND METHODS” (XENAMED CORP., priority 2016, published 2025).
Converted amounts (≈) assume the structure as drawn.

Columns and labels:
Assay type in all cases: physicochemical
[1] = Droxidopa solubility at room temperature at different pH
[2] = Stability of droxidopa dissolved in diluents of different pH (0.5 mg/ml, room temperature, UPLC); settings: for Total degradation, 24-hour Exposure / Total degradation, 48-hour Exposure: room temperature, 0.5 mg/ml
Method: Droxidopa was dissolved in 5 diluents at different pH and stored at room temperature for 24 or 48 hours in sealed glass containers. All solutions were prepared at a nominal concentration of 0.5 mg/ml. Percent degradation was determined by ultra-performance liquid chromatography (UPLC) on a Waters ACQUITY UPLC with a photodiode array (PDA) detector using a Waters ACQUITY BEH C18 1.7 um 2.1×50 mm column. Run conditions for the analyses were as follows: • Mobile phase A: 50 mM sodium phosphate pH 3.0 • Mobile phase B: Acetonitrile • Detection wavelength: 279 nm • Flow: 0.5 ml/min • Column temperature: 30 C • Injection volume: 2 μl • Gradient (linear transitions) are shown in Table 12A: Identification of the known components droxidopa and dihydroxybenzaldehyde was confirmed through retention time and spectral match against pure materials of known identity. Degradation results were quantified as a percent area of degradation peaks versus total area of all degradation/droxidopa peaks. Results for pH 10.0 and pH 12.0 samples were estimated at >90% due to a significant number of peaks present near the retention time of droxidopa.

[3] = Stability of saturated droxidopa solutions at room temperature (UPLC); settings: for Stability of saturated droxidopa in solution: room temperature over 24 days; for Total degradation, 7 day Exposure / Total degradation, 24 day Exposure: saturated solution
Method: Saturated solutions of droxidopa were prepared in 3 diluents at different pH and stored at room temperature for up to 24 days in sealed containers. All solutions were prepared with an excess of droxidopa by combining 10 mg droxidopa per ml of diluent. Exposed samples were filtered and degradation as a percent of initial droxidopa amount was determined by ultra-performance liquid chromatography (UPLC) on a Waters ACQUITY UPLC with a photodiode array (PDA) detector using a Waters ACQUITY HSS PFP 1.8 μm 2.1×100 mm column. Run conditions for the analyses were as follows: • Mobile phase A: 50 mM ammonium formate pH 3.0 • Mobile phase B: Acetonitrile • Detection wavelength: 279 nm • Flow: 0.5 ml/min • Column temperature: 30 C • Injection volume: 1 μl • Gradient (linear transitions) are shown in Table 12B: […]

[4] = Solid state stability of droxidopa with pH modifiers under accelerated conditions 70° C./75% RH
Method: Droxidopa is stable in acidic solution, but degrades in neutral or alkaline conditions. […] When citric acid was present with the drug in solid state, e.g. powder or uncoated granules, droxidopa became unstable under accelerated conditions 70° C./75% RH. When these droxidopa granules/pellets were coated with a protective layer, and blended with citric acid, the drug degradation was reduced. Furthermore, a pH modifier monosodium citrate was used instead of citric acid and blended with droxidopa granules. Droxidopa was stable for 7 days under accelerated conditions 70° C./75% RH. […] Thus, salt based pH modifiers can be used to improve the stability of the droxidopa.

[5] = pH 3, 50 mM NaH2PO4 adjusted to pH 3.0 with Phosphoric acid
[6] = pH 7, 50 mM NaH2PO4 adjusted to pH 7.0 with 1N Sodium hydroxide
[7] = 16 mmol citric acid, room temperature
[8] = 16 mmol disodium citrate combined with 16 mmol citric acid to achieve pH 4.0, room temperature

solubility ([1]; solution of pH 1.2 (composition not stated), pH 1.2, simulated gastric fluid): 15500 µg/mL (≈ 72.7 mM)
solubility ([1]; solution of pH 3.0 (composition not stated), pH 3, aqueous buffer): 2620 µg/mL (≈ 12.3 mM)
solubility ([1]; solution of pH 4.5 (composition not stated), pH 4.5, aqueous buffer): 2350 µg/mL (≈ 11 mM)
solubility ([1]; solution of pH 5.5 (composition not stated), pH 5.5, aqueous buffer): 2300 µg/mL (≈ 10.8 mM)
solubility ([1]; solution of pH 6.8 (composition not stated), pH 6.8, aqueous buffer): 2470 µg/mL (≈ 11.6 mM)
Stability in solution ([2]; acidic solution): stable
Stability in solution ([2]; neutral or alkaline conditions): degrades
Total degradation, 24-hour Exposure ([2]; pH 1.2, 0.1N HCl): <0.05%
Total degradation, 48-hour Exposure ([2]; pH 1.2, 0.1N HCl): <0.05%
Total degradation, 24-hour Exposure [2, 5]: <0.05%
Total degradation, 48-hour Exposure [2, 5]: <0.05%
Total degradation, 24-hour Exposure [2, 6]: 0.39%
Total degradation, 48-hour Exposure [2, 6]: 1.23%
Total degradation, 24-hour Exposure ([2]; pH 10, 25 mM HCO2NH4 adjusted to pH 10.0 with NH4OH, estimated): >90%
Total degradation, 24-hour Exposure ([2]; pH 12, 0.01N NaOH, estimated): >90%
Stability of saturated droxidopa in solution ([3]; citrate buffer (pH 4.0)): stable
Stability of saturated droxidopa in solution ([3]; citric acid solution (pH 2.5)): stable
Total degradation, 7 day Exposure [3, 7]: 0.0%
Total degradation, 24 day Exposure [3, 7]: 0.1%
Total degradation, 7 day Exposure [3, 8]: 0.0%
Total degradation, 24 day Exposure [3, 8]: 0.1%
Total degradation, 7 day Exposure ([3]; Deionized water, room temperature): 0.1%
Solid state stability ([4]; citric acid present with the drug in solid state (powder or uncoated granules)): unstable
Solid state stability ([4]; droxidopa granules blended with monosodium citrate, 7 days): stable
Drug degradation in solid state ([4]; granules/pellets coated with a protective layer and blended with citric acid): reduced
SMILES: N[C@H](C(=O)O)[C@H](O)c1ccc(O)c(O)c1 [droxidopa, (−)-threo-3-(3,4-Dihydroxyphenyl)-L-serine]
